Measured values published in patent US20260116921A1, “PEPTIDE INHIBITORS OF INTERLEUKIN-23 RECEPTOR AND THEIR USE TO TREAT INFLAMMATORY DISEASES” (priority 2018, published 2026).
Where two headings read alike, the source gives them in different places. Numbered stars: 1 amine (or outer) side, 2 acyl side, 3 side chain; on linkers, the order of the positions; unused ones are H or OH. Bridge positions count the residues as written; N and C are the ends. Square brackets hold non-standard residues; d marks the D form. Peptide text beside a SMILES is read from it. Trp(4-OMe) = COc1cccc2[nH]cc(C[C@H](N)C(=O)O)c12; Trp(5-OH) = N[C@@H](Cc1c[nH]c2ccc(O)cc12)C(=O)O; Trp(7-Me) = Cc1cccc2c(C[C@H](N)C(=O)O)c[nH]c12; Abu(4-yl) = O=C([C@H](CC[*:3])N[*:1])[*:2]; 2Nal = N[C@@H](Cc1ccc2ccccc2c1)C(=O)O; AEF = NCCOc1ccc(C[C@H](N)C(=O)O)cc1; Cit = NC(=O)NCCC[C@H](N)C(=O)O; αMeL = CC(C)C[C@](C)(N)C(=O)O; Pen = CC(C)(S)[C@H](N)C(=O)O; αMeK = C[C@](N)(CCCCN)C(=O)O; Aib = CC(C)(N)C(=O)O; βAla = NCCC(=O)O

T1: IL-23R (Homo sapiens, UniProt Q5VWK5)
T1 sequence (Q5VWK5 24-629): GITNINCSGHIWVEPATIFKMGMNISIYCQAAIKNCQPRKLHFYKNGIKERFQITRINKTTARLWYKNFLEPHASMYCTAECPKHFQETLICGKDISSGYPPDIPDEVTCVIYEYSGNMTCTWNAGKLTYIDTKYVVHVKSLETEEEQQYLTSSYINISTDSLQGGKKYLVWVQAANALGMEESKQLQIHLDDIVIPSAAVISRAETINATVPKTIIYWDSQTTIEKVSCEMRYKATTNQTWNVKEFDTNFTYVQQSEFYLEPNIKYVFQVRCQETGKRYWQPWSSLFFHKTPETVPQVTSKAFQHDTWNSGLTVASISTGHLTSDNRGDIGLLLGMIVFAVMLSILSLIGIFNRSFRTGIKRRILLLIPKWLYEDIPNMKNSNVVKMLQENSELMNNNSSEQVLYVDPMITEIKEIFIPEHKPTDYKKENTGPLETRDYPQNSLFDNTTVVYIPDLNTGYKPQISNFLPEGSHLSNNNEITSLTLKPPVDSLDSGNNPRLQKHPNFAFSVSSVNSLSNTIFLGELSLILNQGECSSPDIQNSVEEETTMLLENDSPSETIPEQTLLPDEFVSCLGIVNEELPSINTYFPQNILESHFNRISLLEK

T2: IL-23R (human, UniProt Q5VWK5 24-629)
T2 sequence (looked up): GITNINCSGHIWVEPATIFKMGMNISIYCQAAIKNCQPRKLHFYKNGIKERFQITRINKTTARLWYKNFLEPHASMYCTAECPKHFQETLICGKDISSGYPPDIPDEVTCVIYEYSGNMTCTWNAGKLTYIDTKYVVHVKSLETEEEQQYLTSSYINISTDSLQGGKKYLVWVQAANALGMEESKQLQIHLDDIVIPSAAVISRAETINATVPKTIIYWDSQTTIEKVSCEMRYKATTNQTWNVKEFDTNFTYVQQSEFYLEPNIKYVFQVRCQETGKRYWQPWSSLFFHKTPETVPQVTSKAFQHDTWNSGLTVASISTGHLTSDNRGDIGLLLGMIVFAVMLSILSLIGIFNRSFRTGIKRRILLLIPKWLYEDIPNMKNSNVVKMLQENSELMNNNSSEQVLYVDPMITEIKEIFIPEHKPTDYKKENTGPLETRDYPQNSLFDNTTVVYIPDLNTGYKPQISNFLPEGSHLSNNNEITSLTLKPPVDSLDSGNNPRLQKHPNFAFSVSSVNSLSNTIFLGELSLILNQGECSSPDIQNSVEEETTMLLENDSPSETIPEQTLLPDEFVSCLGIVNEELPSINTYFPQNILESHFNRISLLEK


Key:
[1] = 20% cynomolgus monkey fecal homogenate, 37° C., 20 μM
[2] = target: T1, IL-23R; test: DB cells IL23R pSTAT3 cell assay (pStat3 HTRF); type: cell-based; conditions: Table E3; DB cells, IL-23 0.5 nM, 30 minutes at 37° C.; read-out: pStat3 HTRF (IC50)
How it was run: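 DB cells (5×10E5/well, RPMI-1640 + 10% FBS) stimulated with 0.5 nM final IL-23 plus serially diluted test peptides for 30 min at 37 °C, 5% CO2. Phospho-STAT3 (Tyr705) in lysates measured by HTRF using a two-plate protocol.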

[3] = 20% human fecal homogenate, 37° C., 20 μM
Protocol: Fecal homogenate (20%) was prepared by adding 4 mL of growth medium (1 liter contains 2 g peptone water powder, 2 g yeast extract, 0.1 g NaCl, 0.04 g KH2PO4, 0.01 g CaCl2·6H2O, 0.01 g MgSO4·7H2O, 2 mL Tween 80, 0.5 g bile salts, 0.5 g L-cysteine HCl, 2 g NaHCO3, and 10 μL Vitamin K, pH adjusted to 6.8, and sterilized by filtration through a 0.22 μm filter) to every gram of feces (pooled freshly collected human or cynomolgus monkey feces). The suspension was vortexed to break up large clumps, and homogenized using a bead mill homogenizer. Centrifuged the homogenate at 2800×g for 15 min. The supernatant is taken out and used for incubations. DMSO stocks (10 mM) were first prepared for the test compounds. Incubations were performed in an anaerobic chamber conditioned at 37° C. Aliquots of the DMSO solutions were dosed into 1.0 mL aliquots of 20% fecal homogenate, which are pre-warmed to 37° C. The final test compound concentration was 20 μM. At each timepoint (0, 20 min, 1, 3, 6, or 24 hours), 100 μL aliquot of each incubation mixture is taken out and added to separate tubes containing 300 μL of 50% acetonitrile/50% methanol and an internal standard to terminate the reaction. Samples were taken out of the anaerobic chamber and stored at 4° C. until the end of the experiment. After the final timepoint is sampled, the tubes were mixed and then centrifuged at 3,000 rpm for 10 minutes. Aliquots of the supernatant were removed, diluted 1:1 into distilled water containing 0.1% formic acid, and analyzed by LC/MS/MS. Percent remaining at each timepoint was calculated based on the peak area response ratio of test to compound to internal standard. Time 0 was set to 100%, and all later timepoints were calculated relative to time 0. Half-lives were calculated by fitting to a first-order exponential decay equation using Graphpad or Excel.

[4] = SD rat plasma, 37° C., 20 μM
[5] = in vitro; type: in vitro ADME; design: half-life: dose or concentration left out as unconfirmed; conditions: pH 6.8, 37° C., § matrix is 100 fold dilution of standard SIF concentration; for SIF t½: simulated intestinal fluid, pancreatin; for half-life: simulated intestinal fluid (SIF) with pancreatin, read-out: SIF t½ (converted)
Protocol: SIF was prepared by adding 6.8 g of monobasic potassium phosphate and 10.0 g of pancreatin to 1.0 L of water. After dissolution, the pH was adjusted to 6.8 using NaOH. DMSO stocks (2 mM) were first prepared for the test compounds. Aliquots of the DMSO solutions were dosed into 6 individual tubes, each containing 0.5 mL of SIF, which is pre-warmed to 37° C. The final test compound concentration was 20 M. The vials were kept in a benchtop Thermomixer® for the duration of the experiment. At each timepoint (0, 5, 10, 20, 40, 60, or 360 minutes or 24 hours), 1.0 mL of acetonitrile containing 1% formic acid was added to one vial to terminate the reaction. Samples were stored at 4° C. until the end of the experiment. After the final timepoint is sampled, the tubes were mixed and then centrifuged at 3,000 rpm for 10 minutes. Aliquots of the supernatant were removed, diluted 1:1 into distilled water containing internal standard, and analyzed by LCMS/MS. Percent remaining at each timepoint was calculated based on the peak area response ratio of test to compound to internal standard. Time 0 was set to 100%, and all later timepoints were calculated relative to time 0. Half-lives were calculated by fitting to a first-order exponential decay equation using Graphpad.

[6] = target: T2, IL-23R; test: cell-based or functional assay
[7] = target: T2, IL-23R; test: cell-based or functional assay; remark: listed apart in the source
[8] = target: T2, IL-23R; test: cell-based or functional assay; remark: listed apart in the source

Row | Molecule | t½: Monkey Feces anaerobic [1] | t½: Human Feces anaerobic [3] | t½: Rat Plasma EDTA [4] | also measured
1 | CC(=O)NCCCC[C@H](NC(=O)[C@](C)(CC(C)C)NC(=O)[C@H](Cc1ccc2ccccc2c1)NC(=O)[C@H](Cc1ccc(OCCN)cc1)NC(=O)[C@H]1NC(=O)[C@H](CCC(N)=O)NC(=O)[C@H](Cc2c[nH]c3c(C)cccc23)NC(=O)[C@H]([C@@H](C)O)NC(=O)[C@H](CC(N)=O)NC(=O)[C@@H](NC(C)=O)C(C)(C)SSC1(C)C)C(=O)N1CCC[C@H]1C(=O)NCCC(N)=O [compound 211] | >24 h | 10 h |  | IC50 [2]: > 100 nM
2 | CC(=O)N[C@@H]1C(=O)N[C@@H](CC(N)=O)C(=O)N[C@@H]([C@@H](C)O)C(=O)N[C@@H](Cc2c[nH]c3c(C)cccc23)C(=O)N[C@@H](CCCNC(N)=O)C(=O)N[C@H](C(=O)N[C@@H](Cc2ccc(OCCN)cc2)C(=O)N[C@@H](Cc2ccc3ccccc3c2)C(=O)N[C@@](C)(CCCCN)C(=O)N[C@@H](CCCNC(N)=O)C(=O)NCCC(=O)NCCC(N)=O)C(C)(C)SSC1(C)C [compound 281] (Ac-[Pen]NT[Trp(7-Me)][Cit][Pen][AEF][2Nal][αMeK][Cit][βAla][βAla]-NH2; disulfide 1-6) | >24 h | >24 h | >24 h | IC50 [2]: 10 to 100 nM; SIF t½ [5]: 14 h
3 | CC(=O)NCCCC[C@@H]1NC(=O)[C@H](Cc2c[nH]c3c(C)cccc23)NC(=O)[C@H]([C@@H](C)O)NC(=O)[C@H](CCC(N)=O)NC(=O)[C@@H](NC(=O)[C@@H](CCCNC(=N)N)NC(C)=O)CCSC[C@@H](C(=O)N[C@@H](Cc2ccc(OCCN)cc2)C(=O)N[C@@H](Cc2ccc3ccccc3c2)C(=O)N[C@@](C)(CCCCN)C(=O)N[C@@H](CCCCNC(C)=O)C(=O)N[C@@H](CC(N)=O)C(=O)N[C@H](CC(C)C)C(N)=O)NC1=O [compound 325] (Ac-[dR][Abu(4-yl)]QT[Trp(7-Me)]K(Ac)C[AEF][2Nal][αMeK]K(Ac)N[dL]-NH2; thioether 2-7) | 22 h | >24 h |  | half-life [5]: 2 h
4 | CC(=O)NCCCC[C@H](NC(=O)[C@](C)(CCCCN)NC(=O)[C@H](Cc1ccc2ccccc2c1)NC(=O)[C@H](Cc1ccc(OCCN)cc1)NC(=O)[C@H]1NC(=O)[C@H](CCCCNC(=O)C(C)(C)N)NC(=O)[C@H](Cc2c[nH]c3c(C)cccc23)NC(=O)[C@H]([C@@H](C)O)NC(=O)[C@H](CC(N)=O)NC(=O)[C@@H](NC(C)=O)C(C)(C)SSC1(C)C)C(=O)N[C@@H](CC(N)=O)C(=O)N[C@H](CC(C)C)C(N)=O [compound 322] | >24 h | >24 h |  | half-life [5]: 1 h
5 | CC(=O)NCCCC[C@H](NC(=O)[C@](C)(CC(C)C)NC(=O)[C@H](Cc1ccc2ccccc2c1)NC(=O)[C@H](Cc1ccc(OCCN)cc1)NC(=O)[C@H]1NC(=O)[C@H](CCC(N)=O)NC(=O)[C@H](Cc2c[nH]c3c(C)cccc23)NC(=O)[C@H]([C@@H](C)O)NC(=O)[C@H](CC(N)=O)NC(=O)[C@@H](NC(C)=O)C(C)(C)SSC1(C)C)C(=O)N[C@@H](C(=O)NCCC(N)=O)[C@H](C)O [compound 218] |  |  | 1 h | 
6 | CC(=O)NCCCC[C@@H]1NC(=O)[C@H](Cc2c[nH]c3c(C)cccc23)NC(=O)[C@H]([C@@H](C)O)NC(=O)[C@H](CC(N)=O)NC(=O)[C@@H](NC(C)=O)C(C)(C)SSC(C)(C)[C@@H](C(=O)N[C@@H](Cc2ccc(OCCN)cc2)C(=O)N[C@@H](Cc2ccc3ccccc3c2)C(=O)N[C@@](C)(CCCCN)C(=O)N[C@@H](CCCCNC(C)=O)C(=O)N[C@@H](CC(N)=O)C(=O)N[C@H](Cc2ccccc2)C(N)=O)NC1=O [compound 258] | >24 h | >24 h | >24 h | SIF t½ [5]: 14 h
7 | CC(=O)NCCCC[C@H](NC(=O)[C@](C)(CCCCN)NC(=O)[C@H](Cc1ccc2ccccc2c1)NC(=O)[C@H](Cc1ccc(OCCN)cc1)NC(=O)[C@H]1NC(=O)[C@H](CCC(N)=O)NC(=O)[C@H](Cc2c[nH]c3c(C)cccc23)NC(=O)[C@H]([C@@H](C)O)NC(=O)C(C)(C)NC(=O)[C@@H](NC(C)=O)C(C)(C)SSC1(C)C)C(=O)N[C@@H](CC(N)=O)C(=O)NCCC(N)=O [compound 240] (Ac-[Pen][Aib]T[Trp(7-Me)]Q[Pen][AEF][2Nal][αMeK]K(Ac)N[βAla]-NH2; disulfide 1-6) | 3 h | 4 h | 8 h | IC50 [2]: 10 to 100 nM
8 | RXQTXQCXXXKNN (Ac-[(D)Arg]-[Abu]-QT-[W(7-Me)]-QC-[Phe[4-(2-aminoethoxy)]-[2-Nal]-[THP]-[Lys(Ac)]-NN-NH2; Abu-Cys thioether) [SEQ ID NO: 29] |  |  |  | pStat3 HTRF (nM) IC50 [6]: < 1 nM
9 | Ac-[Pen]NTWQ[Pen][AEF][Trp(4-OMe)][αMeL]K(Ac)NN-NH2 (disulfide 1-6; SMILES COc1cccc2[nH]cc(C[C@H](NC(=O)[C@H](Cc3ccc(OCCN)cc3)NC(=O)[C@H]3NC(=O)[C@H](CCC(N)=O)NC(=O)[C@H](Cc4c[nH]c5ccccc45)NC(=O)[C@H]([C@@H](C)O)NC(=O)[C@H](CC(N)=O)NC(=O)[C@@H](NC(C)=O)C(C)(C)SSC3(C)C)C(=O)N[C@@](C)(CC(C)C)C(=O)N[C@@H](CCCCNC(C)=O)C(=O)N[C@@H](CC(N)=O)C(=O)N[C@@H](CC(N)=O)C(N)=O)c12) [SEQ ID NO: 15] |  |  |  | pStat3 HTRF (nM) IC50 [7]: > 100 nM
10 | XQTXQCXXXENN (Ac-[Abu]-QT-[W(7-Me)]-QC-[Phe[4-(2-aminoethoxy)]-[2-Nal]-[THP]-ENN-NH2; Abu-Cys thioether) [SEQ ID NO: 28] |  |  |  | pStat3 HTRF (nM) IC50 [6]: < 1 nM
11 | XNTXQXXXXKNN (Ac-[Pen]-NT-[W(7-Me)]-Gln-[Pen]-[Phe[4-(2-aminoethoxy)]-[2-Nal]-[α-MeLeu]-[Lys(Ac)]-NN-NH2; Pen-Pen disulfide) [SEQ ID NO: 6] |  |  |  | pStat3 HTRF (nM) IC50 [7]: < 1 nM; NK Cell Assay (nM) IC50 [8]: < 10 nM
12 | RXQTXQCXXXENN (Ac-[(D)Arg]-[Abu]-QT-[W(7-Me)]-QC-[Phe[4-(2-aminoethoxy)]-[2-Nal]-[THP]-ENN-NH2; Abu-Cys thioether) [SEQ ID NO: 27] |  |  |  | pStat3 HTRF (nM) IC50 [6]: < 1 nM
13 | Ac-[Pen]NTWQ[Pen][AEF][Trp(5-OH)][αMeL]K(Ac)NN-NH2 (disulfide 1-6; SMILES CC(=O)NCCCC[C@H](NC(=O)[C@](C)(CC(C)C)NC(=O)[C@H](Cc1c[nH]c2ccc(O)cc12)NC(=O)[C@H](Cc1ccc(OCCN)cc1)NC(=O)[C@H]1NC(=O)[C@H](CCC(N)=O)NC(=O)[C@H](Cc2c[nH]c3ccccc23)NC(=O)[C@H]([C@@H](C)O)NC(=O)[C@H](CC(N)=O)NC(=O)[C@@H](NC(C)=O)C(C)(C)SSC1(C)C)C(=O)N[C@@H](CC(N)=O)C(=O)N[C@@H](CC(N)=O)C(N)=O) [SEQ ID NO: 21] |  |  |  | pStat3 HTRF (nM) IC50 [7]: > 100 nM
